Tests used:
P. putida TVA8 [1] = assay: Prototype test strip, toluene bioreporter; assay type: cell-based; conditions: 10 ppm toluene in mixture
Text: (§1) 1. The bottom layer is absorbent Whatman filter paper.
(§2) 2. The second layer is an impermeable water barrier. Currently we are using aluminum foil.
(§3) 4. The fourth layer is the styrene sheet. […] There is one circle for each bioreporter.
(§4) 5. The last layer is the encapsulated cells.
(§5) Water will be wicked up the filter paper.
[…]. […] […].

P. putida TVA8 [2] = conditions: cited from earlier work
P. fluorescens 5RL [3] = conditions: salicylate 10 and 100 ppm, cellulose filter strips, room temperature
Experimental: Strips were removed and excess fluid was drained. These filter strips with cells were placed on a second set of strips impregnated with salicylic acid (10 and 100 ppm).
Briefly, a 100 μl sample of an uninduced culture of Pseudomonas fluorescens 5RL was placed in a sterile petri dish containing LB broth (10 ml) supplemented with tetracycline (14 μg/mI).

E. coli EC100 = conditions: cellulose strips
E. coli ARL1 = assay: Detection of mercury using bioluminescence, strain ARL1; assay type: cell-based; conditions: 500 μg HgCl2/L
Experimental: (§6) Strains ARL1, ARL2, and ARL3 were screened for bioluminescence production in the presence of HgCl2. Each strain was grown in LB medium to an OD546nm of 0.35 at which time 500 μg HgCl2/L was added. Induction of bioluminescence in the presence of mercury was rapid (FIG. 5) with significant light produced in 30 minutes. Strain ARL2 had higher background bioluminescence (˜31,486 cps) in the absence of mercury relative to strain ARL1 and ARL3 (˜13,798 and ˜12,762 respectively). After 20 minutes, strain ARL2 produced approximately twice the amount of bioluminescence ((˜1,791,560 cps) relative to strains ARL1 and ARL3 (˜917.496 and 825,240 cps respectively).

E. coli ARL2 = assay: Detection of mercury using bioluminescence, strain ARL2; assay type: cell-based; conditions: 500 μg HgCl2/L
Experimental: as §6

E. coli ARL3 = assay: Detection of mercury using bioluminescence, strain ARL3; assay type: cell-based; conditions: 500 μg HgCl2/L
Experimental: as §6

P. fluorescens 5RL [4] = assay: Prototype test strip, naphthalene/salicylate bioreporter; assay type: cell-based; conditions: 5 ppm naphthalene in mixture with 1 ppm Hg2+ and 10 ppm toluene
Text: as §1, §2, §3, §4, §5

[5] = system: P. fluorescens 5RL (pUTK21); conditions: cited from earlier work

SMILES: Cc1ccccc1 [Toluene]
- visibility of bioluminescence on test strip (P. putida TVA8 [1]): only detectable with a photomultiplier
- Response Time (P. putida TVA8 [2]): 25 ppm

SMILES: O=C([O-])c1ccccc1O.[Na+] [salicylate, sodium salicylate]
- time to light visible to the naked eye (P. fluorescens 5RL [3]): less than 60 min
- time to visible light after contact of test strips with inducer solution (E. coli EC100): less than one hour

SMILES: [Cl][Hg][Cl] [HgCl2]
- time to significant light production (E. coli ARL1): 30 min
- time to significant light production (E. coli ARL2): 30 min
- bioluminescence after 20 minutes (E. coli ARL2; LB medium, OD546nm 0.35): ~1,791,560 cps
- time to significant light production (E. coli ARL3): 30 min
- bioluminescence after 20 minutes (E. coli ARL3; LB medium, OD546nm 0.35): ~825,240 cps

SMILES: c1ccc2ccccc2c1 [Naphthalene]
- visibility of bioluminescence on test strip (P. fluorescens 5RL [4]): visible to the naked eye
- Lower Detection Limits [5]: ˜50 ppb
- Response Time [5]: ˜1 hour

From US20030108980A1, “Bioluminescent methods for direct visual detection of environmental compounds” (priority 2000, published 2003)
